Laboratory results from patent US20250388625A1, “CYCLOSPORINE ANALOGUES” (priority 2022, published 2025).

Experiments:
IFITM3 [1] = target: T1, IFITM3 (Homo sapiens, UniProt Q01628); assay type: cell-based; parameters: treated with 10 ng/ml type 1 interferon (IFNβ) overnight to induce IFITM3 expression; endogenous in cells; host or cells: THP-1 (human monocytic cell line), IFNβ-treated
Human stem cells (HSC) [2] = assay: Mean fluorescent intensity of transduced human stem cells (FIG. 7); assay type: cell-based; details: for overall performance as transduction enhancer in stem cells: Examples 5 and 6
Experimental: Here a different measurement was made of transgene expression using the cells from the same experiment as that above (Example 5). Rather than measuring the number of cells transduced (% infection) the mean fluorescent intensity (greenness of the transgene expressing cells) was measured.

Human stem cells (HSC) [3] = assay type: cell-based
Human stem cells (HSC) [4] = assay: Cell viability of human stem cells (FIG. 5); details: compared with PS+LB treatment
U87 cells = assay: HIV-GFP infection of U87 cells (FIG. 2); assay type: cell-based; details: MOI 0.3, tested at 2.5, 5, or 10 μM
Experimental: Next, an experiment was performed in U87 cells. These cells differ from THP-1 in that they express IFITM3 and TRIM5. Thus only inhibitors with reduced CypA inhibition will rescue infection. This functionally tests whether the inhibitors have lost CypA inhibition, but retain IFITM3 inhibition.
U87 cells were infected at an MOI of 0.3 in the presence of DMSO (0.1% v/v) or inhibitors at 2.5, 5, or 10 μM (left bar to right bar for each indicated compound, respectively). Inhibition of IFITM3 raises infectivity. Unlike other inhibitors, BG147 gives maximal infection enhancement at the lowest concentration of 2.5 μM. Other molecules achieve maximal infection rescue at the highest concentration.

IFITM3 [5] = target: T1, IFITM3; assay type: cell-based; parameters: treated with 10 ng/ml type 1 interferon (IFNβ) overnight to induce IFITM3 expression; endogenous in cells; host or cells: THP-1 (human monocytic cell line), IFNβ-treated; remark: listed apart in the source
CypA = CypA (Homo sapiens, UniProt P62937); assay: biochemical; assay type: binding; details: for Kd / Max Response: SPR, Biacore, 25° C.
CypA, sequence (P62937 whole entry): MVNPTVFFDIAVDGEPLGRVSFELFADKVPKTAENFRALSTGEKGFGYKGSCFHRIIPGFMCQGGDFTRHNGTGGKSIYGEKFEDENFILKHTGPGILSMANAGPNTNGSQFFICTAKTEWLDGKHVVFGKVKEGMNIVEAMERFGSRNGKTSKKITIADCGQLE
Experimental: CypA binding was carried out using surface plasmon resonance as described (Warne J Biol Chem. 2016 Feb. 26; 291 (9): 4356-73).
Surface Plasmon Resonance (SPR) using Biacore at 25° C. was used to study the binding interactions between CypA and various inhibitors. The SPR binding experiments used a duel flow cell with a blank reference. The sensor chip surface was initially activated with a mixture of N-hydroxysuccinimide (NHS,) and N-(3-dimethyl-aminopropyl)-N′-ethyl-carbodiimide hydrochloride (EDC) for 420 s with a flow rate of 10 μl/min on blank flow cell 1 in addition to flow cell 2.
CypA protein was diluted to a concentration of 50 μg/mL by the addition of 10 mM sodium acetate pH 5 solution before immobilisation and covalent attachment to the carboxy-methylated dextran matrix of the Biacore CM5 sensor chip. CypA was run against the surface for 420 s and then any unreacted surface was quenched by 420 s of ethanolamine.
Immobilisations were carried out in the presence of JW47 (Warne J Biol Chem. 2016 Feb. 26; 291 (9): 4356-73).
No regeneration stage was required if the dissociation time was sufficient.
Solvent correction was carried out in each experiment using 8 different DMSO dilutions as reference: 2.8%, 2.6%, 2.4%, 2.2%, 2%, 1.8%, 1.6% & 1.5%.
A 50/50 mixture of buffer and DMSO is required to include a wash cycle in the experiment.
50 μl of CypA (0.1 mg/ml)+40 μL of 10 mM sodium acetate pH5+10 μl of 600 μM of JW47 DMSO solution. This mixture was allowed to stand at room temperature for 10 mins prior to set-up in the injection rack.

IFITM3 [6] = target: T1, IFITM3; assay type: cell-based; parameters: treated with 10 ng/ml type 1 interferon (IFNβ) overnight to induce IFITM3 expression; endogenous in cells; host or cells: THP-1 (human monocytic cell line), IFNβ-treated; remark: listed apart in the source
IFITM3 [7] = target: T1, IFITM3; assay: IFITM3 levels by immunoblot in IFNβ-treated THP-1 cells (FIG. 9A); assay type: cell-based; parameters: treated with 10 ng/ml type 1 interferon (IFNβ) overnight to induce IFITM3 expression; endogenous in cells; host or cells: THP-1 (human monocytic cell line), IFNβ-treated; details: 5 μM, 6 hours; Actin loading control
Experimental: THP-1 cells (human monocytic cell line) were treated with […] Type I interferon (IFNβ) overnight to induce IFITM3 expression. […] Protein samples were harvested 6 hours later and the IFITM3 levels measured by immunoblot with Actin detected as a loading control. IFN induces IFITM3.

[8] = system: SARS-COV-2 (Alpha, Delta or Omicron isolates); assay: SARS-COV-2 replication in Calu-3 lung epithelial cells by RT-qPCR (FIG. 9B); assay type: cell-based

T1 sequence (Q01628 whole entry): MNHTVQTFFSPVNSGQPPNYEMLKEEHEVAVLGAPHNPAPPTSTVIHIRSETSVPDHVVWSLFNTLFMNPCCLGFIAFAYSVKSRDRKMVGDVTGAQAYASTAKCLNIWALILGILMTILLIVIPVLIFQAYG

SMILES | rescue of infection from IFN (% infected cells) (IFITM3 [1]) | overall performance as transduction enhancer in stem cells (Human stem cells (HSC) [2]) | mean fluorescent intensity (greenness of transgene expressing cells) (Human stem cells (HSC) [2]; treatment with 2.5 μM BG147+PS+LB) | transduction enhancement (% infected human stem cells), first donor (Human stem cells (HSC) [3]; 48 hours post transduction, FIG. 4) | transduction enhancement (% infected human stem cells), second HSC donor (Human stem cells (HSC) [3]; 48 hours post transduction, FIG. 6) | combination effect on number of transduced cells (Human stem cells (HSC) [3]; BG147 at 2.5 μM with PS and LB, second HSC donor) | cell viability after treatment (Human stem cells (HSC) [4]) | concentration giving maximal infection enhancement (U87 cells) [µM] | relative potency in rescue of infection (IFITM3 [5]) | rescue of infection from the antiviral effect of IFN (IFITM3 [5]) | koff (CypA) [s⁻¹] | kon (CypA) [M⁻¹ s⁻¹] | Kd (CypA; Kd (Affinity)) [nM] | Kd (CypA; Kd (Kinetics)) [nM] | Max Response (CypA) [RU] | fold rescue compared to inhibited baseline (IFITM3 [6]) [fold] | IFITM3 protein levels by immunoblot (IFITM3 [7]) | inhibition of viral replication (E copies, fold change vs DMSO) [8]
CC[C@@H]1NC(=O)[C@H]([C@H](O)[C@H](C)C/C=C/c2ccc(C(=O)OCCn3ccnc3)c3ccccc23)N(C)C(=O)[C@H](C(C)C)N(C)C(=O)[C@H](CC(C)C)N(C)C(=O)[C@H](CC(C)C)N(C)C(=O)[C@@H](C)NC(=O)[C@H](C)NC(=O)[C@H](CC(C)C)N(C)C(=O)[C@H](C(C)C)NC(=O)[C@H](CC(C)C)N(C)C(=O)CN(C)C1=O [BG147, 2-(1H-imidazol-1-yl)-ethyl-4-((4R,5R,E)-5-((2S,5S,11S,14S,17S,20S,23R,26S,29S,32S)-5-ethyl-11,17,26,29-tetraisobutyl-14,32-diisopropyl-1,7,10,16,20,23,25,28,31-nonamethyl-3,6,9,12,15,18,21,24,27,30,33-undecaoxo-1,4,7,10,13,16,19,22,25,28,31-undecaazacyclotritriacontan-2-yl)-5-hydroxy-4-methylpent-1-en-1-yl)-1-naphthoate] | completely rescued infection from IFN | performs best | greenest cells | out performs other inhibitors and is as effective as state of the art transduction enhancer | out-performed other inhibitors including state of the art transduction enhancer combination of LB+PS | additive with PS and LB giving the best number of transduced (infected) cells | viability is good | 2.5 | more potent than CsH | rescue infection from the antiviral effect of IFN | 0.0216 | 9750 | 5270 | 2220 | 14.0 |  |  | 
CC[C@@H]1NC(=O)[C@H]([C@H](O)[C@H](C)C/C=C/c2ccc(C(=O)OCCn3ccnc3)cc2)N(C)C(=O)[C@H](C(C)C)N(C)C(=O)[C@H](CC(C)C)N(C)C(=O)[C@H](CC(C)C)N(C)C(=O)[C@@H](C)NC(=O)[C@H](C)NC(=O)[C@H](CC(C)C)N(C)C(=O)[C@H](C(C)C)NC(=O)[C@H](CC(C)C)N(C)C(=O)CN(C)C1=O [JW3-158, 2-(1H-imidazol-1-yl)ethyl-4-((4R,5R,E)-5-((2S,5S,11S,14S,17S,20S,23R,26S,29S,32S)-5-ethyl-11,17,26,29-tetraisobutyl-14,32-diisopropyl-1,7,10,16,20,23,25,28,31-nonamethyl-3,6,9,12,15,18,21,24,27,30,33-undecaoxo-1,4,7,10,13,16,19,22,25,28,31-undecaazacyclotritriacontan-2-yl)-5-hydroxy-4-methylpent-1-en-1-yl)benzoate] |  | not working so well |  |  |  |  | viability is good |  |  |  | 0.00217 | 13400 | 1830 | 160 | 27.0 | 29.2 | most potent effect | inhibits Delta and Omicron replication to a greater extent than Alpha
